Measured values reported in ChEMBL document CHEMBL1201862, “PubChem BioAssay data set” (2004).
Active and inactive are the calls of the source.

How the values were obtained:
[1] = HIV-1 Vif–A3G interaction blockers – biochemical, TR-FRET, GST-Vif 1-94, biotin-A3G peptide, dose response retest, primary screen (AID 1117319); assay type: functional;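 note: TR-FRET signal of purified GST-Vif binding a biotinylated A3G peptide; inhibitors lower the FRET signal by blocking Vif and A3G binding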
HeLa = test: viability loss in HeLa cells – cell-based, ATP luminescence, cherry-pick samples, cytotoxicity control, dose response (AID 687004); assay type: functional
[2] = target: T1, Type-1 angiotensin II receptor (Homo sapiens, UniProt P30556); test: antagonism of angiotensin II type 1 receptor – cell-based, uHTS hits, selectivity assay for APJ receptor antagonist project, dose response (AID 463214); assay type: functional;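 note: antagonist potency against angiotensin II stimulated AT1 response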
T1 sequence (P30556 whole entry): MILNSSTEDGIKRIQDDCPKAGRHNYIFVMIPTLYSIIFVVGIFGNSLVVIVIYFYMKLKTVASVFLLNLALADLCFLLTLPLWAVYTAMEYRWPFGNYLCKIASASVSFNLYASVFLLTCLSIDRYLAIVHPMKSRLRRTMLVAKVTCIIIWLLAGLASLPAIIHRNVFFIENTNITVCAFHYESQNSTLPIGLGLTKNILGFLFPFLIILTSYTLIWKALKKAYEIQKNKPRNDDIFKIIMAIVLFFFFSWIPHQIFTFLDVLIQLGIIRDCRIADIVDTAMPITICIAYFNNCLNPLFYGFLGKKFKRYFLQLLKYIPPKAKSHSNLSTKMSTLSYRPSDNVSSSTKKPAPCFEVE

Beta-galactosidase = Beta-galactosidase (Escherichia coli, UniProt Q8VNN2); test: PubChem AID 485352; assay type: functional
Chain of Beta-galactosidase (Q8VNN2 whole entry): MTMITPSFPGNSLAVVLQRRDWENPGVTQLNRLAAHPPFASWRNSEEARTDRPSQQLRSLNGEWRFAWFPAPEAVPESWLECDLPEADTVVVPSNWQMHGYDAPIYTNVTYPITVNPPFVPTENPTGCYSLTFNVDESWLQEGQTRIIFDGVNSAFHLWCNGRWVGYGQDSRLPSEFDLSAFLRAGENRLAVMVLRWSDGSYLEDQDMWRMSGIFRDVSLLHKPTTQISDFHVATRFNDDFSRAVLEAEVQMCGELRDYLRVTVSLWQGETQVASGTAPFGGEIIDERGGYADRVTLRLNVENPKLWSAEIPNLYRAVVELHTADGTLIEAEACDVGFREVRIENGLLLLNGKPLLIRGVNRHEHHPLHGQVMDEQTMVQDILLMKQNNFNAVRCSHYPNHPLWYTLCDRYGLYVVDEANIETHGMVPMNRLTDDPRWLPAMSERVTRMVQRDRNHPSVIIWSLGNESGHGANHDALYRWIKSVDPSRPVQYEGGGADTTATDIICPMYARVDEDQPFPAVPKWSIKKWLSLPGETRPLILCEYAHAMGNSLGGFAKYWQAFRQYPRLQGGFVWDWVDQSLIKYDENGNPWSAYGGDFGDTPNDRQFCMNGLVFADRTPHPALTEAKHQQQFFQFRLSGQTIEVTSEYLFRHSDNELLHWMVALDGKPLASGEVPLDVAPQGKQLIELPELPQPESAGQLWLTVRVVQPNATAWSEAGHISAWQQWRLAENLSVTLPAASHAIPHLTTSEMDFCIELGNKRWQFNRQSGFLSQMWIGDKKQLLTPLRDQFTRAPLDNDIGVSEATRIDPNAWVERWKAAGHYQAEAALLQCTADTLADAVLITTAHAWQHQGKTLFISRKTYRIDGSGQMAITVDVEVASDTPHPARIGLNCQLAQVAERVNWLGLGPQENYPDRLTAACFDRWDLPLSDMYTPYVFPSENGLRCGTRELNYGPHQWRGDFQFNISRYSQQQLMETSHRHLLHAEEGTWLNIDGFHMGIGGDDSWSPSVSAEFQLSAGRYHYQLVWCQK

[3] = target: Tyrosyl-DNA phosphodiesterase 2 (Homo sapiens, UniProt O95551); test: potency against TDP2 phosphodiesterase activity – biochemical, epi absorbance, IC50, dose response (AID 743297)
Chain of Tyrosyl-DNA phosphodiesterase 2 (O95551 whole entry): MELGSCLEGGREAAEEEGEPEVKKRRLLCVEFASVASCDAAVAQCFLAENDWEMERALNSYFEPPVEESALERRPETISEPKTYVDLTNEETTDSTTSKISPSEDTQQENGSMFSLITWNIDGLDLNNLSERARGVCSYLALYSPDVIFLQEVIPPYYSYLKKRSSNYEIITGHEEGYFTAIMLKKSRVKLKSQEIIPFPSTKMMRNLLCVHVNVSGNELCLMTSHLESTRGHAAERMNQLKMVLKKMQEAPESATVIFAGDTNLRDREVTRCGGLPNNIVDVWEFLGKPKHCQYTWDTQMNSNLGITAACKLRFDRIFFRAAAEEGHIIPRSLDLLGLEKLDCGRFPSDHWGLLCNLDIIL

Albumin = Albumin (Bos taurus, UniProt P02769); test: Counterscreen for inhibitors of T-cell receptor (TCR)-CD3 interaction: Fluorescence-based biochemical high throughput dose response assay to identify inhibitors of T-cell receptor (TCR)-CD3 interaction using a TAMRA-labeled BSA probe.; assay type: functional
Chain of Albumin (P02769 whole entry): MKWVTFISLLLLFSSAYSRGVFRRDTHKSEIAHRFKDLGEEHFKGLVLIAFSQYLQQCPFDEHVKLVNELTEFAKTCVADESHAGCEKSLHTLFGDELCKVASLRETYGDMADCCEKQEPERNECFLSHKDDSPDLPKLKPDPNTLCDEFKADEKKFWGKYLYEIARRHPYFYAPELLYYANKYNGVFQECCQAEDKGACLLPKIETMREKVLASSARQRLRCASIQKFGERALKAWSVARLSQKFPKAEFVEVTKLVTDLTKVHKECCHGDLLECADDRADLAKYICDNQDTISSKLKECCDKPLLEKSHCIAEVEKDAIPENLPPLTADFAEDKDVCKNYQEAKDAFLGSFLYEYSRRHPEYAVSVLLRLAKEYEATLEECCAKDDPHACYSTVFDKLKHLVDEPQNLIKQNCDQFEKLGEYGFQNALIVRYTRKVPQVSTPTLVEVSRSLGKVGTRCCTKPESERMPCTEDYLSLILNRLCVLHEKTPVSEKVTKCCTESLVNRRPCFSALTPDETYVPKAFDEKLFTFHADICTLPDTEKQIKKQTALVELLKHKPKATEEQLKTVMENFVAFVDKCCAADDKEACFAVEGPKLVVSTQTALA

[4] = A549 cell cytotoxicity, dose response, cytotoxicity control, plate reader, cherry-pick, antagonist series (AID 743412); assay type: functional, cell-based
[5] = blockade of melanocortin 4 receptor signaling – cell-based, plate reader, cherry pick, counter-screen for LGR2 antagonist project, dose response (AID 743444); assay type: functional;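 note: transfected HEK 293 cells stimulated with alpha-MSH peptide; potency of inhibitors of the alpha-MSH evoked signal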
[6] = blockers of bursicon-stimulated LGR2 cAMP reporter – cell-based, HEK293, CRE-luciferase reporter, cherry pick, set 2, dose response (AID 743343); assay type: functional;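 note: transfected cells were stimulated with diluted bursicon conditioned medium after compound addition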
[7] = viability loss in HEK293 cells – cell-based, plate reader, cherry-picked samples, cytotoxicity control, dose response (AID 743446); assay type: functional
[8] = toxicity toward HepG2 liver cells – cell-based, plate reader, cherry-pick, antagonist series, cytotoxicity control, dose response (AID 743416); assay type: functional
[9] = target: T2, Acyl-homoserine lactone acylase PvdQ (Pseudomonas aeruginosa (strain LESB58), UniProt Q9I194); test: PvdQ acylase enzyme activity blockers – biochemical, fluorescence, plate reader and imaging, cherry-picks, dose response (AID 493231)
T2 sequence (Q9I194 whole entry): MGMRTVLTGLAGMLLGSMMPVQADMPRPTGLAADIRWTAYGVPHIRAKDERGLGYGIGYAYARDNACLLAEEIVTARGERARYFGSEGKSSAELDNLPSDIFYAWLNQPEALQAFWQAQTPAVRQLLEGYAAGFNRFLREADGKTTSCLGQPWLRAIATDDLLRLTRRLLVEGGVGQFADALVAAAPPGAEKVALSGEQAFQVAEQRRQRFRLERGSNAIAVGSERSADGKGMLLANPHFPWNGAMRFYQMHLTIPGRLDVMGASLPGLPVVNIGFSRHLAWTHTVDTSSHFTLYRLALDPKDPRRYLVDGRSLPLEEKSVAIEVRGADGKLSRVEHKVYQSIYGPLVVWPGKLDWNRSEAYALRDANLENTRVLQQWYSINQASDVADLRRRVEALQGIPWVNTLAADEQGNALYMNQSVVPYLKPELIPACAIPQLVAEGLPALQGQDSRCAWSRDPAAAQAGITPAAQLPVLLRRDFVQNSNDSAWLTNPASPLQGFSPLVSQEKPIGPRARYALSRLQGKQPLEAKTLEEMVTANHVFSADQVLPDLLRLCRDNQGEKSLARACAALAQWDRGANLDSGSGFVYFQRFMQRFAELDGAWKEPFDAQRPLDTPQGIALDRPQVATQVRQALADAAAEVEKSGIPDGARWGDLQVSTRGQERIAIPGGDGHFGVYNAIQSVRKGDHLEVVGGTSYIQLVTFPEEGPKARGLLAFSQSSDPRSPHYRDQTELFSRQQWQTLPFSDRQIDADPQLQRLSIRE

[10] = glucagon-like peptide-1 release potency in STC-1, concentration-response, half-maximal inhibitory concentration in the STC-1 line (AID 1117345); assay type: functional, cell-based
[11] = Potency on glucagon-like peptide 1 release, dose-response in NCI-H716 cell line, half maximal inhibitory concentration (AID 1117344); assay type: functional, cell-based
[12] = SNU-C1 cell viability reduction, dose response, CellTiter-Glo luminescence (AID 1117323); assay type: functional, cell-based
[13] = CellTiter-Glo luminescence survival assay, SW480 colon tumor line, concentration-response curve, half-maximal inhibitory concentration (AID 1117338); assay type: functional
[14] = cytotoxicity toward HT-29 cells – cell-based, CellTiter-Glo luminescence, IC50, dose response (AID 1117330); assay type: functional
[15] = cytotoxicity toward HCT116 cells – cell-based, CellTiter-Glo luminescence, IC50, dose response (AID 1117332); assay type: functional; settings: HCT-116
[16] = RKO cell viability reduction, dose response, CellTiter-Glo luminescence (AID 1117322); assay type: functional
[17] = rise of 4N DNA cells, HeLa – IC50, dose response (AID 1117351); assay type: functional, cell-based
[18] = cytotoxicity toward Colo320 cells – cell-based, CellTiter-Glo luminescence, IC50, dose response (AID 1117334); assay type: functional; settings: COLO 320
[19] = HCT116 cell viability decrease, GSK3B pretreatment – CellTiter-Glo, IC50, dose response (AID 1117339); assay type: functional; settings: HCT-116
[20] = Reduced DLD-1 viability, concentration-response, CellTiter-Glo luminescence (AID 1117352); assay type: functional
[21] = rise of 2N DNA cells, HeLa – IC50, dose response (AID 1117349); assay type: functional, cell-based
INS1 = test: INS-1E survival protection against cytokine death – cell-based, luminescence, retest, dose response (AID 449756); assay type: functional; settings: Rattus norvegicus;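 note: cell death triggered by IL-1 beta plus TNF-alpha plus IFN-gamma mixture; protective hits raise ATP signal compared with cytokine alone wells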
[22] = microbe, parasite or virus in culture; assay type: functional; settings: Mycobacterium tuberculosis
[23] = reduction of Shn3 3'UTR-driven luciferase in osteoblasts – cell-based, Clone20 osteoblasts, firefly luciferase, cherry-picked, dose response (AID 624132); assay type: functional;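 note: firefly luciferase luminescence from reporter carrying the Shn3 3'UTR in osteoblasts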
[24] = non-specific 3'UTR reporter inhibition in Clone20-Shn3RL – cell-based, Renilla luciferase, cherry-picked, counter-screen for Shn3 inhibitor project, dose response (AID 624133); assay type: functional
[25] = Luminescence Cell-Based Dose Retest to Confirm Inhibitors of Cancer Stem Cells. [Related pubchem assays (depositor defined):AID2717, AID2721]; assay type: functional; settings: Homo sapiens
[26] = target: T3, Ubiquitin-conjugating enzyme E2 N (Homo sapiens, UniProt P61088); assay type: functional;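 note: Dose-response confirmation in a TR-FRET assay detecting UBC13-driven polyubiquitin chain formation, inhibition measured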
T3 sequence (P61088 whole entry): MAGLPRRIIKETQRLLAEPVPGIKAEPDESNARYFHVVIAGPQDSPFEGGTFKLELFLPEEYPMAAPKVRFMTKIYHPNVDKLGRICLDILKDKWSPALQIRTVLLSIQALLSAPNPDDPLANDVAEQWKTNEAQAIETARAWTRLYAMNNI

With `Cn1nnc(NC(=O)c2cccc(F)c2)n1` the IC50 [1] was > 100 µM (active).
For `COc1ccc(C(=O)NC(=S)Nc2cccc(Cl)c2N2CCOCC2)cc1[N+](=O)[O-]`, the AC50 (HeLa) was 28.8 µM (active), the AC50 (HeLa; Homo sapiens) was > 52 µM (inactive) and the IC50 [2] was > 40 µM (not active). For the same molecule, the EC50 (Beta-galactosidase) was > 40 µM (inactive).
With `Cc1cc(NC2=CC(=O)C(=O)c3ccccc32)no1` the IC50 [3] was 3.52 µM (active).
In the case of `O=C(Cc1ccccc1)N/N=C/c1cc(Br)cc(Br)c1O`, the IC50 (Albumin) is reported as > 94.1 µM (inactive).
For `COc1ccc(-c2nc3ccccc3s2)cc1`, the AC50 [4] was 42.9 µM (active), the AC50 [5] was 2.75 µM (active) and the AC50 [6] was 2.17 µM (active). For the same molecule, the AC50 [7] was > 52 µM (inactive), the AC50 [8] was > 52 µM (inactive) and the AC50 [9] was > 100 µM (inactive).
In the case of `C=CC1=C(C)c2cc3[nH]c(cc4nc(cc5[nH]c(cc1n2)c(C)c5CCC(=O)O)C(CCC(=O)O)=C4C)c(C)c3C=C` [PROTOPORPHYRIN DISODIUM], the IC50 [10] is reported as > 40 µM (inactive) and the IC50 [11] is reported as 19.6 µM (inactive).
With `CC(C)=CCOc1ccc(/C=C/C(=O)c2ccc(OCC=C(C)C)cc2OCC(=O)O)cc1` [SOFALCONE] the IC50 [12] was 7.44 µM (inactive), the IC50 [13] was 2.92 µM (active) and the IC50 [14] was 5.4 µM (inactive). For the same molecule, the IC50 [15] was > 6.67 µM (inactive), the IC50 [16] was 5.53 µM (inactive) and the IC50 [17] was > 10 µM (inactive). The IC50 [18] was 1.55 µM (active), the IC50 [19] was 3.04 µM (active) and the IC50 [20] was 5.36 µM (inactive). The IC50 [21] was > 10 µM (inactive).
In the case of `CCCCCCCCNC(C)C(O)c1ccc(SC(C)C)cc1` (stereo not drawn) [SULOCTIDIL], the AC50 (INS1) is reported as 8.21 µM (active), the IC50 [10] is reported as > 40 µM (inactive) and the CC50 [22] is reported as 17.3 µM (active). The AC50 [23] was 3.94 µM (active), the AC50 [24] was 8.28 µM (active) and the AC50 [25] was 2.11 µM (active). The IC50 [11] was 13 µM (inactive) and the IC50 [26] was > 20 µM (inactive).
